Data as given in patent US7064122B2, “Pancreatic lipase inhibitor compounds, their synthesis and use” (OSI Pharmaceuticals, Inc., priority 2001, dated 2006).

Target: T1, type VI-S porcine pancreatic lipase (Sus scrofa, UniProt P00591)
T1 construct: purchased Sigma type VI-S (catalogue number not given)
T1 sequence (P00591 1-450): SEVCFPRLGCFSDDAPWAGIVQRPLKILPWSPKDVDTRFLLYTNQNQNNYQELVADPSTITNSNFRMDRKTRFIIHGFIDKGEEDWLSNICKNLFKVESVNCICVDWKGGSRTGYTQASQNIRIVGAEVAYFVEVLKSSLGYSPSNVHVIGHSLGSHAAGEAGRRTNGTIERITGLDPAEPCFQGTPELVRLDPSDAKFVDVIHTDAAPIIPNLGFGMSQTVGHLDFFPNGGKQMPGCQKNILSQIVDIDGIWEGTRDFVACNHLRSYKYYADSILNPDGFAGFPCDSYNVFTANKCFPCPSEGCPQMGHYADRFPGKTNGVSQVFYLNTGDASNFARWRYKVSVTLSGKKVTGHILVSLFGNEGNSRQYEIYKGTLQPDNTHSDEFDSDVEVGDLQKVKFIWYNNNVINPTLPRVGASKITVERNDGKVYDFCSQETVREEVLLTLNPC
Test: Pancreatic lipase assay (pH-stat titration, triolein substrate)
Assay type: biochemical
Set-up: Ymax: unit not given here
Details: for k / Ymax: 7.0 nM lipase, 700 nM inhibitor, pH 8.0; for k: k fitted for the 12.5 min after inhibitor addition, Y=Ymax*(1-exp(-k*X)); for Ymax: Ymax of the fit Y=Ymax*(1-exp(-k*X)); for inhibition at 0.7 µM: 12.5 min
Experimental: The use of a pancreatic lipase assay has been described in the literature (Hadvary, P. et al. Biochem. J. (1988) 256: 357-361; Hadvary, P. et al. Biochem. J. (1991) 266:2021-2027). Pancreatic lipase activity was measured using a 718 Stat Titrino (Brinkmann) programmed to maintain a pH of 8.0 using 0.1 N NaOH. The substrate mixture (pH 8) contained 1 mM taurochenodeoxycholate (Sigma), 9 mM taurodeoxycholate (Sigma), 0.1 mM cholesterol (Sigma), 1 mM phosphatidylcholine (Sigma), 1.5% BSA, 2 mM Tris base, 100 mM NaCl, 10 mM CaCl2, and 3% triolein (Sigma). The mixture (5 mL) was emulsified via sonication at room temperature, and added to the titration vessel with rapid stirring. The Stat Titrino was turned on and lipase (7.0 nM type VI-S porcine pancreatic lipase (Sigma) dissolved in PBS) was added to the vessel. After 10 min, inhibitor (700 nM dissolved in 100% DMSO) was added and the reaction continued for an additional 12.5 min. The k values were determined for the 12.5 min after the addition of the inhibitor using a one phase exponential association equation, Y=Ymax*(1−exp(−k*X)), k values for lipase alone were 0.0004±0.0001 sec. The k values for compounds disclosed herein are >0.0004±0.0001 sec.

SMILES	k	Ymax	inhibition at 0.7 µM
CCCCCCCNc1nc2sc(C(=O)OCc3ccccc3)c(C)c2c(=O)o1 [Entry 17, 2-Heptylamino-5-methyl-4-oxo-4H-thieno[2,3-d][1,3]oxazine-6-carboxylic acid benzyl ester]	7.74 10-3.s-1	–	–
CCCCCCCCCCCCNC(=O)c1sc2nc(NCCCCCCCC)oc(=O)c2c1C [Entry 29, 5-Methyl-2-octylamino-4-oxo-4H-thieno[2,3-d][1,3]oxazine-6-carboxylic acid dodecylamide]	0.797 10-3.s-1	–	–
CCCCCCCCNc1nc2sc(C(=O)NCc3ccccc3)c(C)c2c(=O)o1 [Entry 21, 5-Methyl-2-octylamino-4-oxo-4H-thieno[2,3-d][1,3]oxazine-6-carboxylic acid benzylamide]	1.079 10-3.s-1	–	–
CCCCCCCCOc1nc2sc(CCCCCC)cc2c(=O)o1 [Entry 84, 6-Hexyl-2-octyloxythieno[2,3-d][1,3]oxazin-4-one]	3.033 10-3.s-1	0.029	71.3%
CCCCCCCCNc1nc2sc(C(=O)N3CCN(CC(=O)NC(C)C)CC3)c(C)c2c(=O)o1 [Entry 64, N-Isopropyl-2-(4-(5-methyl-2-octylamino-4-oxo-4H-thieno(2,3-d)(1,3)oxazine-6-carbonyl)-piperazin-1-yl)-acetamide]	0.176 10-3.s-1	3.917	–
CCCCCCCCCCNC(=O)c1sc2nc(NCCCCCCCC)oc(=O)c2c1C [Entry 28, 5-Methyl-2-octylamino-4-oxo-4H-thieno[2,3-d][1,3]oxazine-6-carboxylic acid decylamide]	0.998 10-3.s-1	–	–
CCCCCCCCNc1nc2sc(C(=O)N(CC)CCc3ccccn3)c(C)c2c(=O)o1 [Entry 51, 5-Methyl-2-octylamino-4-oxo-4H-thieno[2,3-d][1,3]oxazine-6-carboxylic acid ethyl-(2-pyridin-2-yl-ethyl)-amide]	0.012 10-3.s-1	–	–
CCCCCCCCCCc1cc2c(=O)oc(OCCCCCCCC)nc2s1 [Entry 86, 6-Decyl-2-octyloxythieno[2,3-d][1,3]oxazin-4-one]	–	–	73.6%
CCCCCCCOc1nc2sc(C(=O)OCc3ccccc3)c(C)c2c(=O)o1 [Entry 8, 2-Heptyloxy-5-methyl-4-oxo-4H-thieno[2,3-d][1,3]oxazine-6-carboxylic acid benzyl ester]	1.052 10-3.s-1	–	–
CCCCCCCCNc1nc2sc(C(=O)NC(CCCC)CCCC)c(C)c2c(=O)o1 [Entry 45, 5-Methyl-2-octylamino-4-oxo-4H-thieno[2,3-d][1,3]oxazine-6-carboxylic acid (1-butyl-pentyl)-amide]	0.770 10-3.s-1	–	–
CCCCCCC(C)Nc1nc2sc(C(=O)OCc3ccccc3)c(C)c2c(=O)o1 (stereo not shown) [Entry 71, 5-Methyl-2-(1-methylheptylamino)-4-oxo-4H-thieno[2,3-d][1,3]oxazine-6-carboxylic acid benzyl ester]	0.086 10-3.s-1	14.657	–
CCCCCCCCNc1nc2sc(C(=O)N3CCN(Cc4ccccc4)CC3)c(C)c2c(=O)o1 [Entry 40, 6-(4-Benzyl-piperazine-1-carbonyl)-5-methyl-2-octylamino-thieno[2,3-d][1,3]oxazin-4-one]	0.110 10-3.s-1	–	–
CCCCCCCCCCCc1nc2sc(CCCCCCC)cc2c(=O)o1 [Entry 67, 6-Heptyl-2-undecyl-thieno[2,3-d][1,3]oxazin-4-one]	0.064 10-3.s-1	10.973	–
CCCCCCCCNC(=O)c1sc2nc(OCCCCCCCC)oc(=O)c2c1C [Entry 15, 5-Methyl-2-octyloxy-4-oxo-4H-thieno[2,3-d][1,3]oxazine-6-carboxylic acid octylamide]	1.548 10-3.s-1	–	–
CCCCCCCCNc1nc2sc(C(=O)NCc3ccncc3)c(C)c2c(=O)o1 [Entry 55, 5-Methyl-2-octylamino-4-oxo-4H-thieno[2,3-d][1,3]oxazine-6-carboxylic acid (pyridin-4-ylmethyl)-amide]	0.754 10-3.s-1	–	–
CCCCCCCCOc1nc2sc(CCCCCCCC)cc2c(=O)o1 [Entry 85, 6-Octyl-2-octyloxy-thieno[2,3-d][1,3]oxazin-4-one]	–	–	96.1%
CCCCCCCCCCCCCCCCNC(=O)c1sc2nc(NCCCCCCCC)oc(=O)c2c1C [Entry 30, 5-Methyl-2-octylamino-4-oxo-4H-thieno[2,3-d][1,3]oxazine-6-carboxylic acid hexadecylamide]	0.433 10-3.s-1	–	–

SMILES	k	Ymax	inhibition at 0.7 µM
CCCCCCC(C)Oc1nc2sc(C(=O)OCc3ccccc3)c(C)c2c(=O)o1 (stereo not shown) [Entry 89, 5-Methyl-2-(1-methylheptyloxy)-4-oxo-4H-thieno[2,3-d][1,3]oxazine-6-carboxylic acid benzyl ester]	–	–	-14.1%
CCCCCCCCNc1nc2sc(C(=O)NCCc3cccnc3)c(C)c2c(=O)o1 [Entry 50, 5-Methyl-2-octylamino-4-oxo-4H-thieno[2,3-d][1,3]oxazine-6-carboxylic acid (2-pyridin-3-yl-ethyl)-amide]	0.719 10-3.s-1	–	–
CCCCCCCCNc1nc2sc(C(=O)NCCCCCC)c(C)c2c(=O)o1 [Entry 27, 5-Methyl-2-octylamino-4-oxo-4H-thieno[2,3-d][1,3]oxazine-6-carboxylic acid hexylamide]	2.577 10-3.s-1	–	–
CCCCCCCCNc1nc2sc(C(=O)OCc3ccccc3)c(C)c2c(=O)s1 [Entry 56, 5-Methyl-2-octylamino-4-oxo-4H-thieno[2,3-d][1,3]thiazine-6-carboxylic acid benzyl ester]	0.114 10-3.s-1	–	–
CCCCCCCCNc1nc2sc(C(=O)NCC)c(C)c2c(=O)o1 [Entry 33, 5-Methyl-2-octylamino-4-oxo-4H-thieno[2,3-d][1,3]oxazine-6-carboxylic acid ethylamide]	0.547 10-3.s-1	–	–
CCCCCCCCNc1nc2sc(C(=O)NCCCC)c(C)c2c(=O)o1 [Entry 32, 5-Methyl-2-octylamino-4-oxo-4H-thieno[2,3-d][1,3]oxazine-6-carboxylic acid butylamide]	2.447 10-3.s-1	–	–
CCCCCCCCCCc1cc2c(=O)oc(OC(C)CCCCCC)nc2s1 (stereo not shown) [Entry 90, 6-Decyl-2-(1-methylheptyloxy)thieno[2,3-d][1,3]oxazin-4-one]	–	–	15%
CCCCCCCCOc1nc2sc(C(C)CC(C)(C)C)cc2c(=O)o1 (stereo not shown) [Entry 78, 2-Octyloxy-6-(1,3,3-trimethyl-butyl)-thieno[2,3-d][1,3]oxazin-4-one]	1.315 10-3.s-1	0.126	17.9%
CCCCCCCCNc1nc2sc(C(=O)NCC(C)C)c(C)c2c(=O)o1 [Entry 54, 5-Methyl-2-octylamino-4-oxo-4H-thieno[2,3-d][1,3]oxazine-6-carboxylic acid isobutyl-amide]	0.702 10-3.s-1	–	–
CCCCCCCCc1cc2c(=O)oc(OCCCC)nc2s1 [Entry 95]	–	–	60.3%
CCCCCCCCNc1nc2sc(C(=O)NC3CCCCC3)c(C)c2c(=O)o1 [Entry 38, 5-Methyl-2-octylamino-4-oxo-4H-thieno[2,3-d][1,3]oxazine-6-carboxylic acid cyclohexylamide]	2.173 10-3.s-1	0.045	–
CCCCCCCCNc1nc2sc(C(=O)NCCOc3ccccc3)c(C)c2c(=O)o1 [Entry 70, 5-Methyl-2-octylamino-4-oxo-4H-thieno(2,3-d)(1,3)oxazine-6-carboxylic acid (2-phenoxy-ethyl)-amide]	1.999 10-3.s-1	0.140	–
CCCCCCCCNc1nc2sc(C(=O)N3CCN(CCN4CCCCC4)CC3)c(C)c2c(=O)o1 [Entry 53, 5-Methyl-2-octylamino-6-[4-(2-piperidin-1-yl-ethyl)-piperazine-1-carbonyl]-thieno[2,3-d][1,3]oxazin-4-one]	0.166 10-3.s-1	–	–
CCCCCCCCNc1nc2sc(C(=O)NCc3ccccn3)c(C)c2c(=O)o1 [Entry 34, 5-Methyl-2-octylamino-4-oxo-4H-thieno[2,3-d][1,3]oxazine-6-carboxylic acid (pyridin-2-ylmethyl)amide]	0.864 10-3.s-1	–	–
CCCCCCCCNc1nc2sc(C(=O)OCCCCCCCC)c(C)c2c(=O)o1 [Entry 20, 5-Methyl-2-octylamino-4-oxo-4H-thieno[2,3-d][1,3]oxazine-6-carboxylic acid octyl ester]	0.922 10-3.s-1	–	–
CCCCCCCCc1cc2c(=O)oc(OCCCCCC)nc2s1 [Entry 94]	–	–	83%
CCCCCCCCOc1nc2scc(C)c2c(=O)o1 [Entry 23, 5-Methyl-2-octyloxy-thieno[2,3-d][1,3]oxazin-4-one]	0.893 10-3.s-1	–	–
